Assay results taken from patent US9018000B2, “Voltage gated calcium channel β-subunit anchoring regulator protein and uses thereof” (Agency for Science, Technology and Research, priority 2007, dated 2015).

Experiments:
[1] = cited from earlier work
β-subunits = test: co-immunoprecipitation / co-precipitation of BARP with β-subunits; type: binding
Description: To verify that BARP binds to the β-subunits in mammalian cells, co-immunoprecipitation experiments were carried out in COS-1 cells. […] To confirm this association in vivo, we determined the subcellular localization of the β-subunits in the presence of BARP in transfected PC12 and COS-1 cells.
To examine that domain I is indeed a AID-like region, we first mutated the known amino acids in the β-subunit hydrophobic groove responsible for AID interaction, and tested these mutants for association with either AID or BARP domain I by co-precipitation studies. In comparison with the AID domain that only required M196 as a crucial interacting site, almost all amino acid substitutions in the hydrophobic groove of β-subunits interfered with BARP domain I interaction (FIG. 2Cb).
Next, we determined if additional binding sites in BARP are present for β-subunit association. With the use of truncated form of the protein, in which the domain I was abolished, and co-precipitation experiments, we identified a second domain (Dom. II) downstream to the first one (FIG. 2Da).
To further confirm that both domains associate to the β-subunit in the context of full-length BARP, domain I and II were mutated to abolish their respective interaction. […]

β3/AID complex = molecular target: T1, β3/AID complex (Rattus norvegicus, UniProt P54287); test: dissociation of β3-subunits from GST-AID by competitive peptides; type: binding; conditions: peptide 30, 60, 300, 600 nM, four hours, Western blot of supernatant
T1 construct: expressed in transfected cells; host or cells: COS-1 (β3 lysate)
T1 sequence (P54287 whole entry, one chain of several): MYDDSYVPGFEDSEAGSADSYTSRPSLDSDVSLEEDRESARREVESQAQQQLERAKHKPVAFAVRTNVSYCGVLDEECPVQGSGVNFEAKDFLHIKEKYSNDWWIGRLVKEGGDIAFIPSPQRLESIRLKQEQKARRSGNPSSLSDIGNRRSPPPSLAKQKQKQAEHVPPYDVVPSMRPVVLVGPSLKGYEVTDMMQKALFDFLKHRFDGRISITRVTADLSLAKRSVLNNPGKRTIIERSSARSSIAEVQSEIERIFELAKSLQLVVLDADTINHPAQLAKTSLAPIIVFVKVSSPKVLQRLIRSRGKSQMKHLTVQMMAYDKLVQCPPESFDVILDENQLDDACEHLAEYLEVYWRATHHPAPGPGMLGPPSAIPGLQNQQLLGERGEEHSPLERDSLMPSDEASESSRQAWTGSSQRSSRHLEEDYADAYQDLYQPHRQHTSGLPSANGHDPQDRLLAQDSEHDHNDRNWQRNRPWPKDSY
Text: A, Cell surface expression of HA-epitope tagged Cav1.2 and N-Myc BARP in the presence or absence of Cavβ-subunits. Intact cells expressing Cav1.2, BARP and Cavβ-subunits were immunostained with HA and Myc antibodies. Cav 1.2 AID (X) is a mutant deficient in the β-interacting domain. BARP (db) is a mutant deficient in domain I and II, BARP (LW), or BARP (LFFL), mutants are deficient in domain I and II, respectively. Non-permeabilized TsA201 cells co-expressing wt or mutated HA-Cav1.2, wt or mutated Myc-BARP and the Cavβ-subunits were immunostained with antibodies to HA (green) and Myc (red). Cav 1.2 AID (X) and BARP (db) are mutants defective in Cavβ-subunit binding. […] In vivo expressed Cavβ3-subunits were pulled-down using a GST-AID fusion protein and the complex then incubated with increasing amounts of AID or BARP Domain I peptide. The Cavβ3-subunit displaced from the GST-AID was monitored by Western blot. […] Effects of wt or mutated BARP on the I-V relationship of Ca^2+-channels are shown. […]
To verify if the AID-like domain of BARP dissociates β-subunits from the AID of α1-subunits, COS-1 cells lysate expressing β3 subunits was incubated with GST-AID fusion protein to form a β3/AID complex and subsequently, the dissociation of β3 subunits was monitored after addition of an increasing amount of competitive AID or AID-like BARP peptide (FIG. 4D).

Compound: COC(=O)C1=C(C)NC(C)=C([N+](=O)[O-])C1c1ccccc1C(F)(F)F (stereo not shown) [BayK 8644]
- side effects in vivo [1]: severe side effects such as dystonic neurobehavioural syndrome, hypertension and arrhythmia

Compound: Isolated BARP domain I: isolated AID-like β-interacting domain I of BARP, expressed as GST fusion
- association with β-subunit isoforms (β-subunits): able to associate with all known) β-subunit isoforms

Compound: SYRDLWSLRASLELHAATASD [BARP Domain I peptide]
- dissociation of β3-subunit from GST-AID (β3/AID complex): displaces the Cavβ3-subunit from the AID

Compound: isolated domain II: isolated second β-interacting domain of BARP (SEQ ID NO:8) (PRAWPRRPRRDYSIDEKTDALFHEFLRHDPHFDDAPRHR)
- association with β-subunit isoforms (β-subunits): interacted with β2, β3 and β4, but not with β1 isoforms
